The text below walks through data of patent publication US11731986B2 (Sanford Burnham Prebys Medical Discovery Institute, priority 2017, dated 2023).

For this assay, the target named is T1, human LMPTP-A (Homo sapiens, UniProt P24666).
T1 sequence (P24666 1-158): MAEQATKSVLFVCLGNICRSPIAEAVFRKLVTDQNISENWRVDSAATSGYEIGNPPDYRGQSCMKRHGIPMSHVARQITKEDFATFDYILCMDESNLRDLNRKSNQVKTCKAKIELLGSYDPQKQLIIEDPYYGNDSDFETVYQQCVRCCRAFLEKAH
Nature of the assay: Enzyme Assay of Inhibition of LMPTP-A (phosphatase assay, OMFP or pNPP substrate). As to conditions: Bis-Tris pH 6.0, 37° C. The assay is classed as biochemical. A digest of the protocol:
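Buffer 50 mM Bis-Tris pH 6.0, 1 mM DTT, 0.01% Triton X-100, 37 °C; OMFP read continuously (485/525 nm) or pNPP stopped with NaOH, 405 nm. IC50 from concentration vs % activity. Selectivity: 40 μM compound with 0.4 mM OMFP or 5 mM pNPP; reversibility: 50 nM enzyme, 10 μM compound, 5 min, 100× dilution.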

Some results are limits rather than exact numbers.

For the compound `CN1CCC(CNC(=O)COCc2ccc(-c3cc(NCCCN4CCCCC4)c4cnccc4n3)cc2)CC1` [N-((1-methylpiperidin-4-yl)methyl)-2-(4-(4-(3-(piperidin-1-yl)propylamino)-1,6-naphthyridin-2-yl)benzyloxy)acetamide], the half-inhibitory concentration (IC50) (in general, the concentration that inhibits the measured activity by half) is no more than 1000 nM.

`CN1CCC(CNC(=O)C#Cc2ccc(-c3cc(NCCCN4CCCCC4)c4cnccc4n3)cc2)CC1` [N-((1-methylpiperidin-4-yl)methyl)-3-(4-(4-((3-(piperidin-1-yl)propyl)amino)-1,6-naphthyridin-2-yl)phenyl)propiolamide]: the IC50 lay in the range of 1000 to 20000 nM.

For the compound `O=C(c1cc2ccc(-c3cc(NCCCN4CCCCC4)c4cnccc4n3)cc2s1)N1CCNCC1` [Piperazin-1-yl(6-(4-(3-(piperidin-1-yl)propylamino)-1,6-naphthyridin-2-yl)benzo[b]thiophen-2-yl)methanone], the IC50 was no more than 1000 nM.

`O=C(c1nc2ccc(-c3cc(NCCCN4CCCCC4)c4cnccc4n3)cc2s1)N1CCNCC1` [Piperazin-1-yl(6-(4-(3-(piperidin-1-yl)propylamino)-1,6-naphthyridin-2-yl)benzo[d]thiazol-2-yl)methanone] came in with an IC50 of 1000 to 20000 nM.

`CCOC(=O)c1cc2cc(-c3cc(NCCCN4CCCCC4)c4cnccc4n3)ccc2n1C` [ethyl 1-methyl-5-(4-((3-(piperidin-1-yl)propyl)amino)-1,6-naphthyridin-2-yl)-1H-indole-2-carboxylate]: the half-maximal inhibitory concentration (IC50) is no more than 1000 nM.

Take `COC(=O)c1ccc(-c2cc(NCCCN3CCCCC3)c3cnccc3n2)c(C(N)=O)c1` [methyl 3-carbamoyl-4-(4-((3-(piperidin-1-yl)propyl)amino)-1,6-naphthyridin-2-yl)benzoate]: the IC50 fell in the range of 1000 to 20000 nM.

Regarding “methyl-N-(1-methylpiperidin-4-yl)-5-(4-((3-(piperidin-1-yl)propyl)amino)-1,6-naphthyridin-2-yl)-1H-pyrrolo[3,2-b]pyridine-2-carboxamide”, the IC50 lay within 1000 to 20000 nM.
